In patent publication US20250206722A1, “SMALL MOLECULE INHIBITORS OF TEA DOMAIN FAMILY MEMBERS” (The Scripps Research Institute, priority 2022, published 2025):

Columns and labels:
Format in all cases: cell-based
NCI-H226 cells [1] = assay: NCI-H226 proliferation assay (Wuxi AppTec); details: Homo sapiens, 168 h, 7 days, CellTiter-Glo, top dose 10, 3-fold dilution, 9 doses
Procedure: […] Proliferation Assay (From Wuxi AppTec CO.):
Day −1: Seeding cells • (1) Equilibrate cell culture medium to 37° C. • (2) Remove and discard the culture medium. • (3) Briefly rinse the cell layer with PBS to remove all traces of serum that contains […]. • (4) Add 2-3 mL of Trypsin-EDTA solution to flask and observe cells under an inverted microscope until cell layer is dispersed. • (5) Add 6-8 mL of growth medium to terminate the digestion of Trypsin/EDTA. • (6) Centrifuge the mixture (Trypsin EDTA and the growth medium) at 1000 rpm for 5 mins. • (7) Discard the supernatant, suspend the cell precipitation with the fresh growth medium, then take 1 mL the cell suspension to count cells with Vi-cell XR cell viability analyzer. • (8) Adjust the cell density to 500 cells/well for 384-well plates. • (9) Add 50 µL/well volume cell suspension to the assay plate. • (10) Add […] media to the control columns. • (11) Incubate the plate at 37° C., 5% CO2 for overnight. Day 0: Compounds treatment • (1) Add cpds to each well by Tecan HP D300E. The top dose is […], 3-fold dilution and 9 doses. DMSO final concentration will be normalized to 0.2%. • (2) Incubate the assay plate at 37° C., 5% CO2 for 7 days. Day 7: Plate read • (1) Equilibrate the assay plate to the room temperature for nearly 30 minutes. • (2) Add […] CellTiter-Glo reagent to each well and shake the plate for 1 min, incubate 10 min and keep them from light. • (3) Detect the plate by EnVision. Data analysis:
Max: Average of the DMSO group Min: Average of medium group.

[2] = system: transcriptional activity of TEADs; assay: TEAD reporter assay (MCF7 TEAD-LUC reporter cells); details: Homo sapiens, 24 hours, BrightGlo luminescence
Outline: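 MCF7 TEAD-LUC reporter cells were plated at 5,000/well and after 24 h treated with a 20-point 1:2 series from 20 μM final, in triplicate. Luciferase was read by BrightGlo luminescence after 24 h exposure at 37 °C.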

NCI-H226 cells [3] = assay: NCI-H226 proliferation assay (in house); details: Homo sapiens, 120 h, 5 days, Cell TiterGlo, 20-point 1:2 dilution from 20 μM
Outline: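 Cells in RPMI 1640 + 10% FBS, 500 per well, dosed after 24 h with 20-point 1:2 dilutions from 20 μM (final), in triplicate. After 5 days at 37 °C, 5% CO2, viability read by CellTiter-Glo luminescence.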

| IC50 (NCI-H226 cells [1]) | IC50 [2] | IC50 (NCI-H226 cells [3]) | SMILES |
| --- | --- | --- | --- |
| 0.151 µM | 0.0003 µM | 0.651 µM | C#CCC1CN(c2nccnc2Nc2ccc(C(F)(F)F)cc2)CCN1C(=O)C=C (centres unmarked) [Example 23, 1-(2-(prop-2-yn-1-yl)-4-(3-((4-(trifluoromethyl)phenyl)amino)pyrazin-2-yl)piperazin-1-yl)prop-2-en-1-one] |
| 0.028 µM | 0.0008 µM | 0.084 µM | C=CC(=O)N1CCN(c2nccnc2Nc2ccc(OC(F)F)cc2)CC1 [Example 35, 1-(4-(3-((4-(difluoromethoxy)phenyl)amino)pyrazin-2-yl)piperazin-1-yl)prop-2-en-1-one] |
| 0.078 µM | – | – | C=CC(=O)N1CCN(c2nccnc2Nc2ccc(C(F)(F)F)c(OC)c2)CC1 [Example 37, 1-(4-(3-((3-methoxy-4-(trifluoromethyl)phenyl)amino)pyrazin-2-yl)piperazin-1-yl)prop-2-en-1-one] |
| 0.42 µM | – | – | C=CC(=O)N1CCN(c2nccnc2Nc2ccc(C#N)cc2)CC1 [Example 38, 4-((3-(4-acryloylpiperazin-1-yl)pyrazin-2-yl)amino)benzonitrile] |
| 0.011 µM | 0.001 µM | 0.006 µM | C=CC(=O)N1CC=C(c2nccnc2Nc2ccc(C(F)(F)F)cn2)CC1 [Example 43, 1-(4-(3-((5-(trifluoromethyl)pyridin-2-yl)amino)pyrazin-2-yl)-3,6-dihydropyridin-1(2H)-yl)prop-2-en-1-one] |
| 0.02 µM | 0.0014 µM | 0.012 µM | C=CC(=O)N1CCC(c2nccnc2Nc2ccc(C(F)(F)F)cn2)CC1 [Example 44, 1-(4-(3-((5-(trifluoromethyl)pyridin-2-yl)amino)pyrazin-2-yl)piperidin-1-yl)prop-2-en-1-one] |
| 0.452 µM | 0.0006 µM | 1.63 µM | C=C(F)C(=O)N1CCN(c2nccnc2Nc2ccc(C(F)(F)F)nc2)CC1 [Example 46, 2-fluoro-1-(4-(3-((6-(trifluoromethyl)pyridin-3-yl)amino)pyrazin-2-yl)piperazin-1-yl)prop-2-en-1-one] |
| 0.032 µM | 0.0007 µM | 0.023 µM | C=CC(=O)N1CCN(c2nccnc2Nc2ccc(OC(F)(F)F)nc2)CC1 [Example 48, 1-(4-(3-((6-(trifluoromethoxy)pyridin-3-yl)amino)pyrazin-2-yl)piperazin-1-yl)prop-2-en-1-one] |
| 0.031 µM | 0.002 µM | 0.055 µM | C=CC(=O)N1CCN(c2nccnc2Nc2ccc(OC(F)F)nc2)CC1 [Example 49, 1-(4-(3-((6-(difluoromethoxy)pyridin-3-yl)amino)pyrazin-2-yl)piperazin-1-yl)prop-2-en-1-one] |
| 0.026 µM | 0.0031 µM | 0.034 µM | C=CC(=O)N1CCN(c2nccnc2Nc2cnc(C(F)(F)F)c(F)c2)CC1 [Example 50, 1-(4-(3-((5-fluoro-6-(trifluoromethyl)pyridin-3-yl)amino)pyrazin-2-yl)piperazin-1-yl)prop-2-en-1-one] |
| 0.058 µM | 0.004 µM | 0.03 µM | C=CC(=O)N1CC=C(c2nccnc2Nc2ccc(C(F)(F)F)nc2)CC1 [Example 55, 1-(4-(3-((6-(trifluoromethyl)pyridin-3-yl)amino)pyrazin-2-yl)-3,6-dihydropyridin-1(2H)-yl)prop-2-en-1-one] |
| 0.036 µM | – | – | C=CC(=O)N1CC=C(c2nccnc2Nc2ccc(OC(F)(F)F)nc2)CC1 [Example 57, 1-(4-(3-((6-(trifluoromethoxy)pyridin-3-yl)amino)pyrazin-2-yl)-3,6-dihydropyridin-1(2H)-yl)prop-2-en-1-one] |
| 0.283 µM | – | – | C=C(F)C(=O)N1CC=C(c2nccnc2Nc2ccc(OC(F)(F)F)nc2)CC1 [Example 58, 2-fluoro-1-(4-(3-((6-(trifluoromethoxy)pyridin-3-yl)amino)pyrazin-2-yl)-3,6-dihydropyridin-1(2H)-yl)prop-2-en-1-one] |
| 0.1 µM | – | – | C=CC(=O)N1CC=C(c2nccnc2Nc2cnc(C(F)(F)F)nc2)CC1 [Example 59, 1-(4-(3-((2-(trifluoromethyl)pyrimidin-5-yl)amino)pyrazin-2-yl)-3,6-dihydropyridin-1(2H)-yl)prop-2-en-1-one] |
| 1.31 µM | – | – | C=C(F)C(=O)N1CC=C(c2nccnc2Nc2cnc(C(F)(F)F)nc2)CC1 [Example 60, 2-fluoro-1-(4-(3-((2-(trifluoromethyl)pyrimidin-5-yl)amino)pyrazin-2-yl)-3,6-dihydropyridin-1(2H)-yl)prop-2-en-1-one] |
| 1.7 µM | 0.0048 µM | 1.5 µM | C=C(F)C(=O)N1CC(Nc2nccnc2Nc2ccc(C(F)(F)F)nc2)C1 [Example 63, 2-fluoro-1-(3-((3-((6-(trifluoromethyl)pyridin-3-yl)amino)pyrazin-2-yl)amino)azetidin-1-yl)prop-2-en-1-one] |
| 0.104 µM | – | 0.424 µM | C=C(F)C(=O)N1CCC(c2nccnc2Oc2ccc(C(F)(F)F)cn2)CC1 [Example 76, 2-fluoro-1-(4-(3-((5-(trifluoromethyl)pyridin-2-yl)oxy)pyrazin-2-yl)piperidin-1-yl)prop-2-en-1-one] |
| 0.263 µM | – | – | C=CC(=O)N1CCC(O)(c2nccnc2Oc2ccc(C(F)(F)F)nc2)CC1 [Example 83, 1-(4-hydroxy-4-(3-((6-(trifluoromethyl)pyridin-3-yl)oxy)pyrazin-2-yl)piperidin-1-yl)prop-2-en-1-one] |
| 0.042 µM | – | 0.075 µM | C=CC(=O)N1CCC(c2nccnc2Oc2cnc(C(F)(F)F)nc2)CC1 [Example 91, 1-(4-(3-((2-(trifluoromethyl)pyrimidin-5-yl)oxy)pyrazin-2-yl)piperidin-1-yl)prop-2-en-1-one] |
| 1.12 µM | – | 5.64 µM | C=C(F)C(=O)N1CCC(c2nccnc2Oc2cnc(C(F)(F)F)nc2)CC1 [Example 92, 2-fluoro-1-(4-(3-((2-(trifluoromethyl)pyrimidin-5-yl)oxy)pyrazin-2-yl)piperidin-1-yl)prop-2-en-1-one] |
| 0.041 µM | – | 0.074 µM | C=C(F)C(=O)N1CCC(c2nc(C)cnc2Oc2ccc(C(F)(F)F)nc2)CC1 [Example 115, 2-fluoro-1-(4-(6-methyl-3-((6-(trifluoromethyl)pyridin-3-yl)oxy)pyrazin-2-yl)piperidin-1-yl)prop-2-en-1-one] |
| 0.205 µM | – | – | C=CC(=O)N1CCN(c2ccnnc2Nc2ccc(C(F)(F)F)cn2)CC1 [Example 120, 1-(4-(3-((5-(trifluoromethyl)pyridin-2-yl)amino)pyridazin-4-yl)piperazin-1-yl)prop-2-en-1-one] |
| 1.4 µM | – | – | C=CC(=O)N1CCN(c2ccnnc2Nc2ccc(C(F)(F)F)nc2)CC1 [Example 121, 1-(4-(3-((6-(trifluoromethyl)pyridin-3-yl)amino)pyridazin-4-yl)piperazin-1-yl)prop-2-en-1-one] |
| 0.149 µM | 0.0023 µM | – | C=CC(=O)N1CC=C(c2cccnc2Nc2ccc(OC(F)(F)F)nc2)CC1 [Example 147, 1-(2-((6-(trifluoromethoxy)pyridin-3-yl)amino)-3′,6′-dihydro-[3,4′-bipyridin]-1′(2′H)-yl)prop-2-en-1-one] |
| 0.045 µM | 0.0004 µM | – | C=CC(=O)N1CCC(n2nccc2C(=O)c2ccc(C(F)(F)F)cc2)CC1 [Example 164, 1-(4-(5-(4-(trifluoromethyl)benzoyl)-1H-pyrazol-1-yl)piperidin-1-yl)prop-2-en-1-one] |
| – | 0.0023 µM | 0.013 µM | C=C(CF)C(=O)N1CCN(c2nccnc2Nc2ccc(C(F)(F)F)cc2)CC1 [Example 188, 2-(fluoromethyl)-1-(4-(3-((4-(trifluoromethyl)phenyl)amino)pyrazin-2-yl)piperazin-1-yl)prop-2-en-1-one] |
| – | 0.0127 µM | 0.994 µM | O=C(COC(F)(F)F)N1CCN(c2nccnc2Nc2ccc(C(F)(F)F)cc2)CC1 [Example 190, 2-(trifluoromethoxy)-1-(4-(3-((4-(trifluoromethyl)phenyl)amino)pyrazin-2-yl)piperazin-1-yl)ethan-1-one] |
| – | 0.203 µM | > 20 µM | C#CCN(CCOc1nccnc1Nc1ccc(C(F)(F)F)cc1)C(=O)C=C [Example 193, N-(prop-2-yn-1-yl)-N-(2-((3-((4-(trifluoromethyl)phenyl)amino)pyrazin-2-yl)oxy)ethyl)acrylamide] |
| – | 0.238 µM | > 20 µM | C=C(F)C(=O)NCC1CN(c2ccc(C(F)(F)F)nc2)c2nccnc2N1 (centres unmarked) [Example 194] |
